The subject of experiment [1] is delayed-type hypersensitivity response. Particulars: Kudlacz 2004; cited from earlier work.
Experiment [2] has as its system collagen-induced arthritis. Particulars: Milici 2008; cited from earlier work.
In experiment [3] the test system is mixed lymphocyte reaction. Particulars: Kudlacz 2004; cited from earlier work.
A further experiment concerns psoriasis. Conditions: short-term study, Boy 2009; cited from earlier work.
The target in another experiment is T1, JAK3 (Homo sapiens, UniProt P52333).
T1 construct: purchased Invitrogen PV3855
In words: Determination of Drug-Kinase Residence Time for JAK3 (TR-FRET tracer competition). It counts as binding. Conditions: 1.5 uM compound, 500 nM JAK3, from 1 hour through 6 hours. The method, then: The read-out for slow dissociation is the ability of the compound of interest to block binding of a high affinity fluorescent tracer molecule to the kinase active site, as detected using time-resolved fluorescence resonance energy transfer (TR-FRET). The experiment was conducted in a buffer consisting of 50 mM Hepes pH 7.5, 10 mM MgCl2, 0.01% Triton X-100, and 1 mM EGTA.
The first step of the procedure was incubation of 500 nM JAK3 (Invitrogen Cat. #PV3855) with 1.5 uM of a compound disclosed in Table 1 for 30 minutes in a volume of 10 uL. The mixture was then diluted 5-fold by mixture of 10 uL JAK3/cmpd with 40 uL buffer. A 10 uL volume of the diluted kinase/compound solution was then added to a well of a small volume 384 well plate (such as Greiner Cat. #784076). In order to probe for reversibility of the kinase-compound binding interaction, a competition solution containing both a high affinity fluorescent tracer and an antibody coupled to Europium was prepared. For JAK3, the competition solution contained 8 uM Tracer 236 (Invitrogen Cat. #PV5592), which is a proprietary high affinity ligand for JAK3 coupled to the fluorophore AlexaFluor 647. The competition solution also contained 80 nM of an Anti-GST antibody coupled to Europium which is designed to bind the GST purification tag in JAK3.
After addition of 10 uL of the competition solution to the Greiner plate, the mixture was incubated for one hour or greater to allow time for dissociation of non-covalent inhibitors and binding of the high affinity tracer. It was expected that covalent and slow dissociating inhibitors will block binding of the tracer while rapidly dissociating non-covalent inhibitors will not. Binding of the tracer to JAK3 was detected using TR-FRET between the Europium moiety of the Anti-GST antibody and the AlexaFluor 647 group of Tracer 236. Binding was evaluated using a Perkin Elmer Envision instrument (Model 2101) equipped with filters and mirrors compatible with LANCE-type TR-FRET experiments. Data were plotted at percentage of signal obtained in the absence of competitor compound. […]
For orientation: Time-resolved FRET reads energy transfer from a long-lived donor to a nearby acceptor.

The next experiment deals with T2, JAK3 protein (Homo sapiens, UniProt P52333).
T2 sequence (P52333 1-1124): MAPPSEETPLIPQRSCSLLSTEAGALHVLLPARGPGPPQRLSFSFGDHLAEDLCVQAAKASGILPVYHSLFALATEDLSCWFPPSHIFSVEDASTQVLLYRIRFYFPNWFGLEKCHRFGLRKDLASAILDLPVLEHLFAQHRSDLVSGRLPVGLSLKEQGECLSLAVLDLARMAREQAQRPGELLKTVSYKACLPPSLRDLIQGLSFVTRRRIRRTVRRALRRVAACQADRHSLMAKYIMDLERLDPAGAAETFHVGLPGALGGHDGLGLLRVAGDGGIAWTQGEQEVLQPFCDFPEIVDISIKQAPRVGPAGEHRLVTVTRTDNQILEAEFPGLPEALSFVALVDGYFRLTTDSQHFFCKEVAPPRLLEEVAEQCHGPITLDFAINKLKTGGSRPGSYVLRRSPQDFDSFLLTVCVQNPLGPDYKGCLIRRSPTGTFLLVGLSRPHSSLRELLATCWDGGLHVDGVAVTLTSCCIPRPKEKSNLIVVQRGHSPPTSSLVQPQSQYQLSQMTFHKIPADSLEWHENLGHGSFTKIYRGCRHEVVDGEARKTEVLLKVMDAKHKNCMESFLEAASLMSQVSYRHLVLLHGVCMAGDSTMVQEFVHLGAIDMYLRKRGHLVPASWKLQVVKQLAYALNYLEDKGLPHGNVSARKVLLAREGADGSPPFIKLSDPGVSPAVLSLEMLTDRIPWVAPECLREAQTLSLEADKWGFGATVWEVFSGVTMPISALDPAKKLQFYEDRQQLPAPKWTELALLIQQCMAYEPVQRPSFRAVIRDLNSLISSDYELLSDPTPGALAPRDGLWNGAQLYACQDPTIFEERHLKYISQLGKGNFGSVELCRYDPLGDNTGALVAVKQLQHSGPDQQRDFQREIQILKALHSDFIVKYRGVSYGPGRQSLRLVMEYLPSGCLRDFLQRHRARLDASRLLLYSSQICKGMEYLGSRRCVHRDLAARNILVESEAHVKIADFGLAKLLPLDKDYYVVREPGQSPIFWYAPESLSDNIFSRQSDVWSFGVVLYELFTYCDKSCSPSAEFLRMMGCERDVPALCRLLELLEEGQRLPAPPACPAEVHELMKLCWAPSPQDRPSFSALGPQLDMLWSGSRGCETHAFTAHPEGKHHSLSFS
Briefly: Reversibility of Binding (trypsin digestion, HPLC-MS/MS). The procedure: The following approach was developed to differentiate compounds that form irreversible bonds with their targets, such as acrylamide compounds, from compound that bind reversibly. Reactions were prepared with the JAK3 protein target at a higher concentration than the compound of interest. The reactions were then digested with trypsin, disrupting proper folding of the target. […] The concentration of compound in solution was assessed both preceding and following perturbation using high performance liquid chromatography (HPLC) coupled to tandem mass spectrometry.

The next experiment deals with HANK1. Briefly: Tumor Cell Proliferation Assay. It counts as cell-based. Particulars: HANK1, NK-TCL; 72 hr. The procedure: (§1) Cells (SZ-4 CTCL cells) were plated at a density of 5000 cells/well (384 well plates). Cells were plated in DMEM culture media supplemented with 0.5% fetal bovine serum. Other tumor cells (e.g. NK-TCL, T-ALL) were plated at densities of 2000-10,000 cells/well in culture media (e.g. DMEM, RPMI), containing 1%-20% FBS, dependent on the growth requirements of the individual tumor cell line. Compounds were diluted in culture media using serial dilution yielding final concentrations with 0 (DMSO control) or concentrations ranging from 0.5 nM to 10 uM. For the CTCL cells, after 1 hr incubation, at 37° C. in 95% air, 5% CO2, cells were induced with 100 ng/ml IL-2 for 72 hr. For the other cell types, cells were incubated without further induction for 72 hr. Cell Titer-Glo reagent was then added to the cells, contents mixed for 2 min, incubated at room temperature for 10 min, then luminescence was determined using a microplate luminometer. The percent inhibition was calculated based on a DMSO control for no inhibition and plotted as a function of test compound concentration from which an IC50 value was calculated.

Another experiment concerns SZ-4 CTCL cells. In words: Tumor Cell Proliferation Assay. It counts as cell-based. Particulars: SZ-4, CTCL (Sézary syndrome); 100 ng/ml IL-2, 72 hr, Cell Titer-Glo. The method, then: as §1
(In general: Cellular ATP, detected with luciferase, serves as a proxy for viable cell number.)

For the next experiment, the system named is HH. In words: Tumor Cell Proliferation Assay. Conditions: Homo sapiens, CTCL (non MF, non Sézary syndrome), 72 hr. In kind it is cell-based. The procedure: as §1
The next experiment has as its system SNK1. In words: Tumor Cell Proliferation Assay. In kind it is cell-based. Conditions: SNK1, NK-TCL; 72 hr. The method, then:
as §1

Another experiment relates to KHG1. Briefly: Tumor Cell Proliferation Assay. In kind it is cell-based. Particulars: KHG1, NK-TCL; 72 hr. The procedure:
as §1

The subject of the next experiment is Hut-102. Briefly: Tumor Cell Proliferation Assay. It counts as cell-based. Particulars: Hut-102, CTCL (Mycosis fungoides); 72 hr. The procedure: as §1
Another experiment has as its system H9. Briefly: Tumor Cell Proliferation Assay. In kind it is cell-based. Particulars: Homo sapiens; H9, CTCL (Sézary syndrome); 72 hr. The method, then: as §1
In another experiment the test system is H78. Briefly: Tumor Cell Proliferation Assay. In kind it is cell-based. Particulars: H78, CTCL (Sézary syndrome); 72 hr. The procedure:
as §1

The subject of a further experiment is NKS1. In words: Tumor Cell Proliferation Assay. In kind it is cell-based. Particulars: NKS1, NK-TCL; 72 hr. The procedure: as §1
A further experiment concerns SNK6. Briefly: Tumor Cell Proliferation Assay. It counts as cell-based. Conditions: SNK6, NK-TCL; 72 hr. The method, then: as §1
Another experiment concerns MJ. In words: Tumor Cell Proliferation Assay. It counts as cell-based. Conditions: CTCL (Unknown), 72 hr. The procedure: as §1

Bounds are passed on as bounds.

In general, IC50 refers to the concentration that gives 50% inhibition. A lower IC50 goes with inhibition by little substance.

With `C[C@@H]1CCN(C(=O)CC#N)C[C@@H]1N(C)c1ncnc2[nH]ccc12` [CP-690,550], the “effect on delayed-type hypersensitivity response (DTH)” value in experiment [1] is on record as “blocks”. In addition, the “effect in collagen-induced arthritis model” value in [2] was “blocks”. For the same molecule, the “effect on mixed lymphocyte reaction (MLR)” value in experiment [3] is “blocks”. Moreover, the “efficacy in psoriasis patients” value in the experiment on psoriasis was “demonstrated efficacy”.
As to `C=CC(=O)Nc1cccc(-c2cnc3[nH]cc(C(=O)C(C)(C)C)c3n2)c1` [Compound 1, N-(3-(7-pivaloyl-5H-pyrrolo[2,3-b]pyrazin-2-yl)phenyl)acrylamide], at JAK3, the “binding of Tracer 236 after pre-incubation with compound” value (“binding” below) was “no increase”. The “Compound in solution in the native state?” value at JAK3 protein (JAK3 at higher concentration than compound) was “no”. Besides, on JAK3 protein (after digestion with trypsin), the “Compound in solution in the denatured or digested state?” value is reported as “no”.
For `C=CC(=O)Nc1cccc(-c2cnc3[nH]cc(C(=O)NC(C)(C)C)c3n2)c1` [Compound 2, 2-(3-acrylamidophenyl)-N-(tert-butyl)-5H-pyrrolo[2,3-b]pyrazine-7-carboxamide], at JAK3, the “binding” value is reported as “no increase”. The IC50 was 1870 nM in the experiment on HANK1; 56 nM in the experiment with SZ-4 CTCL cells; 2700 nM in the experiment on HH; 735 nM in the experiment with SNK1; 498 nM with KHG1; 104 nM with Hut-102. In addition, the concentration for half-maximal inhibition (IC50) was 450 nM with H9; 150 nM in the experiment with H78; 109 nM with NKS1; 8420 nM in the experiment with SNK6; greater than 5000 nM in the experiment with MJ.
In the case of `CN(C)CC=CC(=O)Nc1cccc(-c2cnc3[nH]cc(C(=O)NC(C)(C)C)c3n2)c1` [Compound 3, N-(tert-butyl)-2-(3-(4-(dimethylamino)but-2-enamido)phenyl)-5H-pyrrolo[2,3-b]pyrazine-7-carboxamide], the “binding” value on JAK3 is listed as “no increase”.

The record behind these values is patent US9676778B2, “Substituted pyrrolo[2,3-b]pyrazines as JAK3 inhibitors” (PRINCIPIA BIOPHARMA INC., priority 2012, dated 2017).
